Assay results from patent publication US9562036B2, “Fluoromethyl-substituted pyrrole carboxamides as CaV2.2 calcium channel blockers” (GRÜNENTHAL GMBH, priority 2013, dated 2017).

Target: T1, Human CaV2.2 channels (Homo sapiens, UniProt Q00975)
T1 construct: expressed in transfected cells; also stably expressing Kir2.3)
Assay: Fluorescent assay for CaV2.2 channels using potassium depolarization to induce channel opening (FLIPR, Fluo 4)
Format: cell-based
Details: 3 μM test compound; 30 mM KCl alternative assay buffer (inactivated channel state); HEK293 cells; read-out: %-Inhib (CaV2.2) @3 μM @30 mM KCl
Description: In the process, the Ca^2+ influx is quantified in the FLIPR assay with the aid of a Ca^2+-sensitive dye (type Fluo-4, Molecular Probes Europe BV, Leiden, the Netherlands) in a fluorescent imaging plate reader (FLIPR 3, Molecular Devices, Sunnyvale, USA), as described hereinafter.
2. Assay Descriptions and Biological Data: 2.1 Fluorescent Assay for CaV2.2 Channels Using Potassium Depolarization to Induce Channel Opening
Human CaV2.2 channels were stably expressed in HEK293 cells together with alpha2-delta and beta subunits of voltage gated calcium channels. In addition, an inwardly rectifying potassium channel (Kir2.3) was stably expressed in these cells to augment control of the cell membrane potential by the concentration of extracellular potassium ions. Raise of the extracellular potassium concentration leads to depolarization of the membrane potential and thus regulates the voltage dependent state of CaV2.2 channels. For preparation, cells were seeded in black poly-D-lysine coated 96-well plates (Becton Dickinson, Biocoat 4640) in 100 μL medium [500 mL DMEM/F-12 plus Glutamax (Invitrogen 31331-093) plus 5.5 mL MEM NEAA 100× (Invitrogen 11140-035) plus 50 mL FBS decomplemented (Invitrogen 10270-106) plus 200 μg/mL Geneticin (Invitrogen 10131-027) plus 50 μg/mL Hygromycin B (Invitrogen 10687-010) plus 2 μg/mL Blasticidin (anti-bl5b Invivo-Gen) plus 0.2 μg/mL Puromycin (A 11138-03)] at a cell density of 30.000 cells per well. Plates were incubated at 37° C. (5% CO2) for 20 to 23 h. On the day of experiment medium was discarded and cells were loaded with Fluo 4 by addition of 100 μL of basic assay buffer (10 mM HEPES, 1 mM KCl, 149 mM NaCl, 0.8 mM CaC2, 1.7 mM MgCl2, 10 mM Glucose, 0.1% BSA. pH 7.4) containing 2 μM Fluo 4 (Molecular Probes; F-14201), 0.01% pluronic acid (Molecular Probes; P-6866) and 2.5 mM probenecid (Molecular Probes; P36400). Cells were incubated in the dark at 25° C. for 60 min. Then dye containing buffer was discarded and 100 μL basic (1 mM KCl) or alternative (30 mM KCl) assay buffer was added. The alternative assay buffer contained altered concentrations of KCl (30 mM) and NaCl (120 mM) and was used in order to promote the inactivated channel state. After that 25 μL of basic or alternative assay buffer with or without test compound were added and cells were incubated again in the dark at 25° C. for 15 min. Fluorescence intensity was measured on a FLIPR 3 instrument (Molecular Devices Corp., Sunnyvale, Calif.) with excitation at 480 nm and emission at 535 nm. After continuously reading fluorescence for 30 sec, 50 μL of basic assay buffer containing 210 mM KCl (NaCl omitted) were added for depolarization. Peak fluorescent signal intensity was determined and the amplitude of the peak signal, normalized to base line, was used to measure channel inhibition by test compounds.

T1 sequence (Q00975 whole entry): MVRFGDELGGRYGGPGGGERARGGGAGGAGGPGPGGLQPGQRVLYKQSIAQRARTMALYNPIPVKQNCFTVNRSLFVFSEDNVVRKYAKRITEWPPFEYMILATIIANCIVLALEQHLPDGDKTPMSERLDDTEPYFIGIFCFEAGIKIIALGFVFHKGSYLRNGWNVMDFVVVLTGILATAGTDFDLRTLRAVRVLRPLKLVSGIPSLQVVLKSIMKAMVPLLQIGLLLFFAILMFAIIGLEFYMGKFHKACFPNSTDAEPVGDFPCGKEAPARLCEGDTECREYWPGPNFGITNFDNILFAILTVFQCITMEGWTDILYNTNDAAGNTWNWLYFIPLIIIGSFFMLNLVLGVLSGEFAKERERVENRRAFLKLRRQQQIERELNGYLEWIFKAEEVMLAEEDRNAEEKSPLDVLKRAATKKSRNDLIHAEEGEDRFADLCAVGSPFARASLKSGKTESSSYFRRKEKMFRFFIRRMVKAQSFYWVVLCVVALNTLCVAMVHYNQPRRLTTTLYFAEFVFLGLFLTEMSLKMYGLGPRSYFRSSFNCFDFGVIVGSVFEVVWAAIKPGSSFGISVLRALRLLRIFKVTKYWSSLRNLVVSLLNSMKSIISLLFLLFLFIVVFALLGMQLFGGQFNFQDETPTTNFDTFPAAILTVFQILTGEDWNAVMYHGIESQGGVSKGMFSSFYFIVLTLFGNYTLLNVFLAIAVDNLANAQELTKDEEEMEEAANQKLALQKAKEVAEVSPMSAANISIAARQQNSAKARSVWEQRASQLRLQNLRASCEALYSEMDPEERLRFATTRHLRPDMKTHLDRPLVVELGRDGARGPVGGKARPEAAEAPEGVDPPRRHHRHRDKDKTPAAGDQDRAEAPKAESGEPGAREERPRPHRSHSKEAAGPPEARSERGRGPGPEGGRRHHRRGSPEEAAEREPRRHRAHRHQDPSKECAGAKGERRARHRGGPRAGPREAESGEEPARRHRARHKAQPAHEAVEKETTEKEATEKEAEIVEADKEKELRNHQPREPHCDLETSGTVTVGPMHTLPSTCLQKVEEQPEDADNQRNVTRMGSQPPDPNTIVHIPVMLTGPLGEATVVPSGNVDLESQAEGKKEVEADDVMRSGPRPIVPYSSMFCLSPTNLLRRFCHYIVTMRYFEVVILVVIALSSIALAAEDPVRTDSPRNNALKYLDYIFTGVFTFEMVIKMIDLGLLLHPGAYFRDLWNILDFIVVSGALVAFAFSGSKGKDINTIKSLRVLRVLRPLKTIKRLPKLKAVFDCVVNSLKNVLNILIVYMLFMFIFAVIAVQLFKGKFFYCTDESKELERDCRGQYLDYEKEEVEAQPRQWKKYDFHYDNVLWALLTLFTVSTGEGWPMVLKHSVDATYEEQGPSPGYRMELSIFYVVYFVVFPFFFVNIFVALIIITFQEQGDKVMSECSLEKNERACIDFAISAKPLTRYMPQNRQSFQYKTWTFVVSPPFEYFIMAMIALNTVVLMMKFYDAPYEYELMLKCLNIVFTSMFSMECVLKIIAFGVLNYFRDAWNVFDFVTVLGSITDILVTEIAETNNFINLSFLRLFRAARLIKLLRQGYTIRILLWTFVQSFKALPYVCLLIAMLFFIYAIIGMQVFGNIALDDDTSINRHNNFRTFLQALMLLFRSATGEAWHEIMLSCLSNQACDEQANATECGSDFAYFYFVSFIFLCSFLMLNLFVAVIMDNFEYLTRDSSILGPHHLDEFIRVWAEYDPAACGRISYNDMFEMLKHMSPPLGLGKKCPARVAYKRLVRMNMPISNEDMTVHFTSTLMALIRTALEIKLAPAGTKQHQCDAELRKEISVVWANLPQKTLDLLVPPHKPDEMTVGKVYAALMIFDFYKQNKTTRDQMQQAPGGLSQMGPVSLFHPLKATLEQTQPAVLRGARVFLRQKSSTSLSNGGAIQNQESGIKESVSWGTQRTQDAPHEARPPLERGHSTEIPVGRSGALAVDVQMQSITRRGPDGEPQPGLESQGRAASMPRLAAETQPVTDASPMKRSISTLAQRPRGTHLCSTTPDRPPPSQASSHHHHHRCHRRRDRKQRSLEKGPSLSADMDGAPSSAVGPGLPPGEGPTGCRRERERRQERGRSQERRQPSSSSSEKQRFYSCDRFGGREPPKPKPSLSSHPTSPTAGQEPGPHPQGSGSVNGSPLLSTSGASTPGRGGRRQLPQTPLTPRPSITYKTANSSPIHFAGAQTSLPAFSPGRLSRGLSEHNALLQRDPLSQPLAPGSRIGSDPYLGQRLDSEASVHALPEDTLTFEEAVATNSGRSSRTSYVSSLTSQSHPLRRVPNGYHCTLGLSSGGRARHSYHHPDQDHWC

First: Cc1c(-c2ccc(Cl)cn2)c(C(=O)NC(C)C)n(Cc2ccccc2)c1C(F)(F)F [Example 53, 1-Benzyl-3-(5-chloro-pyridin-2-yl)-N-isopropyl-4-methyl-5-(trifluoromethyl)-1H-pyrrole-2-carboxylic acid amide]
Second: Cc1c(-c2ncc(Cl)cn2)c(C(=O)N(C)C(C)C)n(Cc2ccccc2)c1C(F)(F)F [Example 54, 1-Benzyl-3-(5-chloro-pyrimidin-2-yl)-N-isopropyl-N,4-dimethyl-5-(trifluoromethyl)-1H-pyrrole-2-carboxylic acid amide]
The inhibition at 3 µM of the first is lower: 75 to 95% for the first, greater than 95% for the second.

First: Cc1c(-c2ncc(C3CC3)cn2)c(C(=O)N(C)C(C)C)n(Cc2ccccc2)c1C(F)(F)F [Example 56, 1-Benzyl-3-(5-cyclopropyl-pyrimidin-2-yl)-N-isopropyl-N,4-dimethyl-5-(trifluoromethyl)-1H-pyrrole-2-carboxylic acid amide]
Second: Cc1c(-c2ncc(Cl)cc2[S+](C)[O-])c(C(=O)N(C)C(C)C)n(Cc2ccccc2)c1C(F)(F)F (centres unmarked) [Example 61, 1-Benzyl-3-[5-chloro-3-(methylsulfinyl)-pyridin-2-yl]-N-isopropyl-N,4-dimethyl-5-(trifluoromethyl)-1H-pyrrole-2-carboxylic acid amide]
The inhibition at 3 µM of the first is higher: greater than 95% for the first, 75 to 95% for the second.

`Cc1c(-c2ncc(Cl)cn2)c(C(=O)N(C)CC(C)(C)C(=O)N(C)C)n(Cc2ccccc2)c1C(F)(F)F` [Example 58, 1-Benzyl-3-(5-chloro-pyrimidin-2-yl)-N-[2-(dimethyl-carbamoyl)-2-methyl-propyl]-N,4-dimethyl-5-(trifluoromethyl)-1H-pyrrole-2-carboxylic acid amide] showed an inhibition at 3 µM greater than 95%.
